We go through 15 compounds from ChEMBL document CHEMBL1933036, “Chromenones as potent bradykinin B1 antagonists” (Bioorg Med Chem Lett, 2012).

Data set [1] addresses T1, B1 bradykinin receptor (Oryctolagus cuniculus, UniProt P48748).
T1 sequence (P48748 whole entry): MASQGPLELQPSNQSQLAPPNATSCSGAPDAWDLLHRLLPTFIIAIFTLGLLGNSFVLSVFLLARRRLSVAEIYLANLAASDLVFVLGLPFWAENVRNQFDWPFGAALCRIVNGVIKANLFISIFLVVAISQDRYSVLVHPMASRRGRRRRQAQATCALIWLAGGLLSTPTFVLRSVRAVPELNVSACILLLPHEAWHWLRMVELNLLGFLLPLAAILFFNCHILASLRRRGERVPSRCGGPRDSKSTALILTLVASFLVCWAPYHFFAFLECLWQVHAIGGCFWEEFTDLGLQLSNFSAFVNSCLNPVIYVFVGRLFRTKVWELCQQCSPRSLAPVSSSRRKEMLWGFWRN
Kind of data set: Antagonist activity at rabbit B1 bradykinin receptor expressed in CHO cells. Type of data set: functional, cell-based.

Data set [2] has as its target T2, B1 bradykinin receptor (Homo sapiens, UniProt P46663).
T2 sequence (P46663 whole entry): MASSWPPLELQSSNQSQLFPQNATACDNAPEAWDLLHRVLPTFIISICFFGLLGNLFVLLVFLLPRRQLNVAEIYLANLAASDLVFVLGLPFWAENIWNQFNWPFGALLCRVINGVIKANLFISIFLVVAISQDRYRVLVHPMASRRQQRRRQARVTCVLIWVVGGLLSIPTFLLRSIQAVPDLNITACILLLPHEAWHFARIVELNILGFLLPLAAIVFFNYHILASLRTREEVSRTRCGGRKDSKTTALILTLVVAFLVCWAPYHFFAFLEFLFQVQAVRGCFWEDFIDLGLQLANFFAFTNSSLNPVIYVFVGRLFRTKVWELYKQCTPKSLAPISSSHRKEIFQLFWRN
Briefly: Antagonist activity at human B1 bradykinin receptor expressed in CHO cells by aqueorin-based calcium flux assay. It is filed as functional, cell-based. For orientation: A change in cytosolic calcium serves as a functional read-out for many receptors and channels.

Data set [3] has as its target T2, B1 bradykinin receptor. Kind of data set: Binding affinity to human B1 bradykinin receptor.
A short description of data set [4]: Oral bioavailability in rat at 5 mg/kg. It is filed as ADME, organism-based. The settings on record: in vivo.
Data set [5] in a line: Volume of distribution at steady state in rat at 2 mg/kg, iv. The settings on record: in vivo, read-out: Vdss. Type of data set: ADME, organism-based. Further details: dose 2 mg/kg, route intravenous.
Data set [6] can be described thus: Clearance in rat at 2 mg/kg, iv. It is filed as ADME, organism-based. Further details: dose 2 mg/kg, route intravenous. The settings on record: in vivo.
Data set [7] can be described thus: Plasma concentration in New Zealand white rabbit carrageenan-induced mechanical hyperalgesia model at 10 mg/kg, sc administered 60 mins before carrageenan challenge measured after 3 hrs. It is filed as ADME, organism-based, Oryctolagus cuniculus. Further details: dose 10 mg/kg, route subcutaneous.
In another data set the test system is Oryctolagus cuniculus. Briefly: Analgesic activity in New Zealand white rabbit mechanical hyperalgesia model assessed as reduction in carrageenan-induced paw withdrawal at 10 mg/kg, sc administered 60 mins before carrageenan challenge measured after 3 hrs. Also noted: scale not given: the % may be the effect or the level left. Type of data set: functional. The settings on record: route subcutaneous. Background: Carrageenan injected into the paw causes an acute inflammation.

Data set [8] can be described thus: Half life in rat at 2 mg/kg, iv. Type of data set: ADME, organism-based. Further details: dose 2 mg/kg, route intravenous. The settings on record: in vivo.
The nature of data set [9]: Oral bioavailability in rat at 2 mg/kg. Type of data set: ADME, organism-based. The settings on record: in vivo.

Turning to `O=C(N[C@@H]1CCCc2cc(CN3CCCCC3)ccc21)c1cccc(-c2coc3ccccc3c2=O)c1`, the IC50 (in general, the concentration needed to halve the response being measured) against B1 bradykinin receptor [1] came to 476 nM; on B1 bradykinin receptor [2] it was 112 nM.

For `Cc1nn(-c2cccc(C(=O)N[C@@H]3CCCc4cc(CN5CCCCC5)ccc43)c2)c(=O)c2ccccc12`, the IC50 against B1 bradykinin receptor [1] is above 6460 nM; on B1 bradykinin receptor [2], 3400 nM.

For `Cc1nn(-c2ccc(C(=O)N[C@H]3CCCc4cc(CN5CCCCC5)ccc43)cc2)c(=O)c2ccccc12`, the IC50 at B1 bradykinin receptor [1] came out at 98 nM; at B1 bradykinin receptor [2], 7 nM. Also, the affinity at B1 bradykinin receptor [3] corresponds to a Ki of 43 nM.

For `O=C(N[C@@H]1CCCc2cc(CN3CCCCC3)ccc21)c1cccc(-c2coc3cccc(Cl)c3c2=O)c1`, the IC50 against B1 bradykinin receptor [1] came to 248 nM; at B1 bradykinin receptor [2] it was 17 nM. Moreover, affinity at B1 bradykinin receptor [3] was put at a Ki of 29 nM.

As for `O=C(N[C@@H]1CCCc2cc(CN3CCCCC3)ccc21)c1cccc(-c2coc3ccc(Cl)cc3c2=O)c1`, the figures for the IC50 on B1 bradykinin receptor [1] and on B1 bradykinin receptor [2] were above 160 nM and 279 nM, respectively. In addition, the affinity on B1 bradykinin receptor [3] corresponds to a Ki of 767 nM.

With `O=C(N[C@@H]1CCCc2cc(CN3CCCCC3)ccc21)c1cccc(-c2coc3ccc(F)cc3c2=O)c1`, the IC50 was 393 nM at B1 bradykinin receptor [1] and 78 nM on B1 bradykinin receptor [2]. Affinity at B1 bradykinin receptor [3] was put at a Ki of 398 nM.

Take `O=C(N[C@@H]1CCCc2cc(CN3CCCCC3)ccc21)c1cccc(-c2coc3cc(Cl)ccc3c2=O)c1`: the values for the IC50 against B1 bradykinin receptor [1] and on B1 bradykinin receptor [2] were above 800 nM and 799 nM, respectively.

For `O=C(N[C@@H]1CCCc2cc(CN3CCCCC3)ccc21)c1cccc(-c2coc3c(Cl)cccc3c2=O)c1`, the half-maximal inhibitory concentration (IC50) was above 800 nM against B1 bradykinin receptor [1] and 188 nM at B1 bradykinin receptor [2]. For the same compound, the affinity on B1 bradykinin receptor [3], expressed as Ki, was 322 nM.

Regarding `O=C(N[C@H]1CCCc2cc(CN3CCCCC3)ccc21)c1ccc(-c2coc3ccccc3c2=O)cc1`, the IC50 against B1 bradykinin receptor [1] was 122 nM.

As for `O=C(N[C@H]1CCCc2cc(CN3CCCCC3)ccc21)c1ccc(-c2coc3cccc(Cl)c3c2=O)cc1`, in [4], the bioavailability (usually dose-corrected exposure relative to a reference, in per cent) is 43.6%. For the same compound, the IC50 was 30 nM against B1 bradykinin receptor [1] and 4 nM on B1 bradykinin receptor [2]. At B1 bradykinin receptor [3], the affinity corresponds to a Ki of 4 nM. Also, the Vd in data set [5] amounted to 6.67 L/kg. Also, the clearance – broadly, the rate of elimination divided by the concentration – in data set [6] is 17.7 mL/min/kg. In [7], this compound gave a concentration at 3 h of 379 nM. In the data set on Oryctolagus cuniculus, the Activity is 65%. Further, in [8], the half-life (in general, the time in which the quantity being followed falls by half) is 4.5 h.

Regarding `O=C(N[C@H]1CCCc2cc(CN3CCCCC3)ccc21)c1ccc(-c2coc3ccc(Cl)cc3c2=O)cc1`, the 50% inhibitory concentration (IC50) on B1 bradykinin receptor [1] and on B1 bradykinin receptor [2] was above 4000 nM each time. Besides, on B1 bradykinin receptor [3], the affinity corresponds to a Ki of 1620 nM.

As for `O=C(N[C@H]1CCCc2cc(CN3CCCCC3)ccc21)c1ccc(-c2coc3cc(Cl)ccc3c2=O)cc1`, the IC50 against B1 bradykinin receptor [1] is above 800 nM; on B1 bradykinin receptor [2], 264 nM. Further, affinity on B1 bradykinin receptor [3] was put at a Ki of 42 nM.

Regarding `O=C(N[C@H]1CCCc2cc(CN3CCCCC3)ccc21)c1ccc(-c2coc3c(Cl)cccc3c2=O)cc1`, the IC50 at B1 bradykinin receptor [1] is above 4000 nM; at B1 bradykinin receptor [2], 186 nM. The affinity at B1 bradykinin receptor [3] corresponds to a Ki of 481 nM.

With `O=C(N[C@H]1CCCc2cc(CN3CCCCC3)ccc21)c1ccc(-c2coc3cccc(F)c3c2=O)cc1`, the IC50 is 24 nM against B1 bradykinin receptor [1] and 12 nM at B1 bradykinin receptor [2]. Further, affinity at B1 bradykinin receptor [3] was put at a Ki of 17 nM. Besides, the Vd in [5] was 8.83 L/kg. The compound also gave a clearance in data set [6] of 25.5 mL/min/kg. This compound also came in with a bioavailability in data set [9] of 27.9%. The half-life in data set [8] was 3.8 h.

`Cc1cccc2occ(-c3ccc(C(=O)N[C@H]4CCCc5cc(CN6CCCCC6)ccc54)cc3)c(=O)c12`: the IC50 against B1 bradykinin receptor [1] was found to be 139 nM; on B1 bradykinin receptor [2], 66 nM. Also, the Ki – broadly, the equilibrium dissociation constant of an inhibitor or competing ligand from its target – on B1 bradykinin receptor [3] was found to be 15 nM.
